Measurements taken from patent publication US20170107203A1, “HETEROCYCLIC INHIBITORS OF THE SODIUM CHANNEL” (EPIRUS BIOPHARMACEUTICALS, INC., priority 2014, published 2017).
Read-outs that look alike come from different tables or passages of the source.

How the values were obtained:
[1] = target: T1, hNav1.7 (Homo sapiens, UniProt Q15858); assay: Nav1.7 potency, Patchliner automated patch clamp; type: cell-based; conditions: automated patchclamp
T1 construct: expressed in transfected cells
Protocol: The generation of a HEK 293F cell line stably expressing human Nav1.7/Navp1 was achieved by co-transfecting human SCN9A and human SCN1B cDNAs, subcloned into plasmid vectors, utilizing standard transfection techniques. Clones were selected using appropriate selection agents (0.3 mg/mL Zeocin and 0.8 mg/mL Geneticin) and maintained in Dulbecco's Modified Eagle medium, 10% fetal bovine serum, 1% non-essential amino acids to ˜80% confluence at 37° C. in a humidified incubator with 95% atmosphere and 5% CO2.
In some cases, the potency of compounds was measured using either the Patchliner automated patch clamp platform (Nanion) or manual patch clamp techniques. Both approaches allowed the compounds to be characterized based upon the ability of a compound to modulate use- and/or state-dependence. The potency data is tabulated in Table 3 and is represented by eight data fields. The first four fields represent potency data measured with the Patchliner automated platform under varying use- and state-dependent electrophysiology protocols similar to the Patch express protocols detailed above. The first data column describes the potency of compounds when the Nav1.7 channel is being repetitively activated at a 7 Hz hyperpolarization frequency (Table 3: hNav1.7: IC50 of inward current block at 7 Hz, Automated patchclamp). The second data column represents the potency at which 50% of the initial hyperpolarization pulse is inhibited by the compounds (Table 3: hNav1.7: IC50 of P1 block, Automated patchclamp). The third data column details the potency of compounds in their ability to block 50% of Nav1.7 channels when these channels are induced into the slow inactivated state (Table 3: hNav1.7: IC50 of slow inactivation block, Automated patchclamp). […] The next three data fields describe the data generated from manual patchclamp electrophysiology measurements using similar methods to those employed for automated patchclamp studies. […] The last column characterizes the state-dependence of compound inhibition. Compounds that maintain the greatest potency for the slow inactivated state over fast inactivated or tonic inhibition at 0.25 Hz are characterized as “state dependent, blocker of slow inactivation”.

[2] = target: T2, human Nav1.7 (Homo sapiens, UniProt Q15858); assay: Assessment of Nav1.7 activity on PatchXpress (voltage dependence / slow inactivation parameters); type: cell-based; conditions: compound at 10 μM, relative to 0.2% DMSO vehicle control; for hNav1.7: Reduction in current at 20 mV (normalized data) Delta Ratio: before/after 30 sec conditioning pulse at 20 mV; for hNav1.7: Shift in voltage dependence of inactivation (mV) Delta Vhalf: PatchXpress
T2 construct: expressed in transfected cells
Summary of the method: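 HEK293F cells stably co-expressing hNav1.7 and β1 were recorded by automated patch clamp in TEA-based external solution (50 mM NaCl, pH 7.4) with CsF internal solution (pH 7.2). A variable conditioning prepulse inactivated channels, followed by a brief hyperpolarizing step and a depolarizing test pulse. Compounds at 10 μM were compared with 0.2% DMSO vehicle across four parameters.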

[3] = 7 Hz, read-out: Nav1.7 IC50 INWARD CURRENT BLOCK (nM) (7 Hz, Automated Patchclamp)
[4] = initial pulse (P1), read-out: Nav1.7 IC50 P1 BLOCK (nM) (Automated Patchclamp)
[5] = slow inactivated state, read-out: Nav1.7 IC50 SLOW INACTIVATION BLOCK (nM) (Automated Patchclamp)

T2 sequence (Q15858 whole entry): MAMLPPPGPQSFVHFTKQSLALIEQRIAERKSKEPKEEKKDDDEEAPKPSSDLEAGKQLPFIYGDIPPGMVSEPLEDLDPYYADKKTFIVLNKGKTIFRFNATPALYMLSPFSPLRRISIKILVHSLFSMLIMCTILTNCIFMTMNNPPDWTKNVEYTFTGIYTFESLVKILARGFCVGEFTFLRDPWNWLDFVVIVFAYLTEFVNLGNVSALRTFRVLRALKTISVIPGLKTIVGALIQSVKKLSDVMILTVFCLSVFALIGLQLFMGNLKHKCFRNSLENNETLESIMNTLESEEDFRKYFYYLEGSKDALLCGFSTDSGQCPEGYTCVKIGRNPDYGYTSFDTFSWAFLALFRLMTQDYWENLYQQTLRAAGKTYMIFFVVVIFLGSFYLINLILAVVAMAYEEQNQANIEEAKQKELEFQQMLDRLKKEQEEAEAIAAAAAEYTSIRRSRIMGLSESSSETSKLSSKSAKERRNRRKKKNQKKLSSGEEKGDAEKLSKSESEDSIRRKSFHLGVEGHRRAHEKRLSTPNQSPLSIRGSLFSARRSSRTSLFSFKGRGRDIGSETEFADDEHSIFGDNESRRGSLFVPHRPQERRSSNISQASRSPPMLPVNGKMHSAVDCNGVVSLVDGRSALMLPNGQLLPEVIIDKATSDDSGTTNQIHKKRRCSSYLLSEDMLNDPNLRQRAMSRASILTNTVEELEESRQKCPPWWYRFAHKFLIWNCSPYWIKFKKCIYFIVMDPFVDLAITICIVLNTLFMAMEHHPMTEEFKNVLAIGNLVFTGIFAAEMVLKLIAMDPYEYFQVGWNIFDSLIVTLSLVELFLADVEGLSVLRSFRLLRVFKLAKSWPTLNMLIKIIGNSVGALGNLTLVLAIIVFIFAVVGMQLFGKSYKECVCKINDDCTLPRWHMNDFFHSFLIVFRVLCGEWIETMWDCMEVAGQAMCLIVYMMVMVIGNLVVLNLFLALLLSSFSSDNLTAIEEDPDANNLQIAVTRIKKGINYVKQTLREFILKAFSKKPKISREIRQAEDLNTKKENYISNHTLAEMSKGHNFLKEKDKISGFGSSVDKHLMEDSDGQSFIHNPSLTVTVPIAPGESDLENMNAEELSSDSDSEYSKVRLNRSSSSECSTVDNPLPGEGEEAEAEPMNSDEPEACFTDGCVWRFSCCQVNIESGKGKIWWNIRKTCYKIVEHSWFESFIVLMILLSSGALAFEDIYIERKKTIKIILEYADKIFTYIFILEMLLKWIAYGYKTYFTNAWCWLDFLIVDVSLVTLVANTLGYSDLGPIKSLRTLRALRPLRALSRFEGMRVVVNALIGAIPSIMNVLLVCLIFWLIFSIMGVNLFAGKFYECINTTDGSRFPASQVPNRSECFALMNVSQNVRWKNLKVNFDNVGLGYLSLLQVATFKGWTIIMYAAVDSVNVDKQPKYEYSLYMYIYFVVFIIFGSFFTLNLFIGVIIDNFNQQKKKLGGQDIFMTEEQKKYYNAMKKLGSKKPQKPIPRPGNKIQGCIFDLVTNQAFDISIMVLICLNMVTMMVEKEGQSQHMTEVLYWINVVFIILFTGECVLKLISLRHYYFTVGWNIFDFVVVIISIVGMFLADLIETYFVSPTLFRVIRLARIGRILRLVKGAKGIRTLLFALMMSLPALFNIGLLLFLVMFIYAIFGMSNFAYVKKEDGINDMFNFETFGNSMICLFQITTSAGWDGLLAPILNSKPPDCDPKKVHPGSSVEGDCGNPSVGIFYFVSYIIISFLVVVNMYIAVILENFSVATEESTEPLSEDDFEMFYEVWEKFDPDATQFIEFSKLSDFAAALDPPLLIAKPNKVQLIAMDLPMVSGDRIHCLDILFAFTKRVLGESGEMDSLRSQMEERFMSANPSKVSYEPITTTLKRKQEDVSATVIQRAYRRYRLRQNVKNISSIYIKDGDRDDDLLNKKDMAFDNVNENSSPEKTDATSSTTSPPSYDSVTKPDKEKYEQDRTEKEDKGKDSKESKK
T2 sequence (Q07699 19-218 partner): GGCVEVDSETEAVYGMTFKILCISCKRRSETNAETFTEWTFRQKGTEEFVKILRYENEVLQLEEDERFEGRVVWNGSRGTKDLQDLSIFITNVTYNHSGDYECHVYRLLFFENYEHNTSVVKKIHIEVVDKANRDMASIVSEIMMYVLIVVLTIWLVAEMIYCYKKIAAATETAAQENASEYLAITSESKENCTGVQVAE
T1 sequence (Q15858 whole entry): as the sequence (Q15858 whole entry) above
T1 sequence (Q07699 19-218 partner): as the sequence (Q07699 19-218 partner) above

CC(C)C[C@@H](N)C(=O)NC(C)COc1cc(C(F)(F)F)cc(C(F)(F)F)c1 (stereo partly drawn) [Compound 6, (2R)-2-amino-N-(1-(3,5-bis(trifluoromethyl)phenoxy)propan-2-yl)-4-methylpentanamide]
IC50 [1, 3]: 1660 nM
IC50 [1, 4]: 12700 nM
IC50 [1, 5]: 2770 nM
hNav1.7: Reduction in current at 20 mV (normalized data) Delta Ratio [2]: −0.25
hNav1.7: Voltage dependence of activation (mV) VDEP [2]: −4.80 mV
hNav1.7: Voltage dependence of fast inactivation (mV) VDEP [2]: −6.20 mV
hNav1.7: Shift in voltage dependence of inactivation (mV) Delta Vhalf [2]: −32.70 mV

CC(C)CC(N)C(=O)N[C@@H](C)COc1cc(C(F)(F)F)cc(C(F)(F)F)c1 (stereo partly drawn) [Compound 10, 2-amino-N-((S)-1-(3,5-bis(trifluoromethyl)phenoxy)propan-2-yl)-4-methylpentanamide]
IC50 [1, 3]: 1890 nM
IC50 [1, 4]: 11500 nM
IC50 [1, 5]: 4120 nM
hNav1.7: Reduction in current at 20 mV (normalized data) Delta Ratio [2]: −0.20
hNav1.7: Voltage dependence of activation (mV) VDEP [2]: −3.70 mV
hNav1.7: Voltage dependence of fast inactivation (mV) VDEP [2]: −3.50 mV
hNav1.7: Shift in voltage dependence of inactivation (mV) Delta Vhalf [2]: −31.40 mV

C[C@@H](NC(=O)[C@H]1CCCN1)c1ccc(OCC(F)(F)F)cn1 [Compound 83, (R)-N-((R)-1-(5-(2,2,2-trifluoroethoxy)pyridin-2-yl)ethyl)pyrrolidine-2-carboxamide]
hNav1.7: Reduction in current at 20 mV (normalized data) Delta Ratio [2]: 0.01
hNav1.7: Voltage dependence of activation (mV) VDEP [2]: −3.1 mV
hNav1.7: Voltage dependence of fast inactivation (mV) VDEP [2]: −0.5 mV
hNav1.7: Shift in voltage dependence of inactivation (mV) Delta Vhalf [2]: −1.5 mV

CC[C@@H](C)[C@@H](N)C(=O)NCCOc1cc(F)cc(C(F)(F)F)c1 [Compound 19, (2R,3R)-2-amino-N-(2-(3-fluoro-5-(trifluoromethyl)phenoxy)ethyl)-3-methylpentanamide]
hNav1.7: Reduction in current at 20 mV (normalized data) Delta Ratio [2]: −0.08
hNav1.7: Voltage dependence of activation (mV) VDEP [2]: −8.00 mV
hNav1.7: Voltage dependence of fast inactivation (mV) VDEP [2]: −3.50 mV
hNav1.7: Shift in voltage dependence of inactivation (mV) Delta Vhalf [2]: −10.00 mV

O=C1CNCCN1Cc1cc(C(F)(F)F)cc(C(F)(F)F)c1 [Compound 91, 1-(3,5-bis(trifluoromethyl)benzyl)piperazin-2-one]
hNav1.7: Reduction in current at 20 mV (normalized data) Delta Ratio [2]: 0.01
hNav1.7: Voltage dependence of activation (mV) VDEP [2]: −5 mV
hNav1.7: Voltage dependence of fast inactivation (mV) VDEP [2]: −4.1 mV
hNav1.7: Shift in voltage dependence of inactivation (mV) Delta Vhalf [2]: −3.1 mV

FC(F)(F)c1cc(C(F)(F)F)c2nc([C@H]3CCCCN3)[nH]c2c1 [Compound 84, (R)-2-(piperidin-2-yl)-5,7-bis(trifluoromethyl)-1H-benzo[d]imidazole]
hNav1.7: Reduction in current at 20 mV (normalized data) Delta Ratio [2]: 0.02
hNav1.7: Voltage dependence of activation (mV) VDEP [2]: −6.7 mV
hNav1.7: Voltage dependence of fast inactivation (mV) VDEP [2]: −2.4 mV
hNav1.7: Shift in voltage dependence of inactivation (mV) Delta Vhalf [2]: 0 mV

COC[C@@H](N)C(=O)NCC(=O)NCc1cc(C(F)(F)F)cc(C(F)(F)F)c1 [Compound 80, (R)-2-amino-N-(2-((3,5-bis(trifluoromethyl)benzyl)amino)-2-oxoethyl)-3-methoxypropanamide]
hNav1.7: Reduction in current at 20 mV (normalized data) Delta Ratio [2]: −0.03
hNav1.7: Voltage dependence of activation (mV) VDEP [2]: −9.3 mV
hNav1.7: Voltage dependence of fast inactivation (mV) VDEP [2]: −3.8 mV
hNav1.7: Shift in voltage dependence of inactivation (mV) Delta Vhalf [2]: −7.2 mV

CN(Cc1nc2c(C(F)(F)F)cc(C(F)(F)F)cc2[nH]1)C(=O)CNC(C)(C)C [Compound 77, N-((4,6-bis(trifluoromethyl)-1H-benzo[d]imidazol-2-yl)methyl)-2-(tert-butylamino)-N-methylacetamide]
hNav1.7: Reduction in current at 20 mV (normalized data) Delta Ratio [2]: −0.06
hNav1.7: Voltage dependence of activation (mV) VDEP [2]: −2.2 mV
hNav1.7: Voltage dependence of fast inactivation (mV) VDEP [2]: −5 mV
hNav1.7: Shift in voltage dependence of inactivation (mV) Delta Vhalf [2]: −0.3 mV
